Experimental data: article PMC4854315, “Discovery of a novel allosteric inhibitor-binding site in ERK5: comparison with the canonical kinase hinge ATP-binding site” (Acta Crystallographica. Section D, Structural Biology, 2016)

Key:
Assay in all cases: Z'-LYTE kinase panel
Format in all cases: biochemical
[1] = target: T1, FRK (PTK5) (Homo sapiens, UniProt P42685)
T1 construct: purchased ThermoFisher (SelectScreen, Z'-LYTE)
Summary of the method: (§1)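 Percent inhibition measured at 10 µM compound using the standard Z′-LYTE protocol, as part of a 225-kinase standard panel screen.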

[2] = target: T2, FLT4 (VEGFR3) (Homo sapiens, UniProt P35916); settings: 10 µM compound, ATP Km app
T2 construct: purchased ThermoFisher (SelectScreen, Z'-LYTE)
Summary of the method: as §1

[3] = target: T3, ROCK1 (Homo sapiens, UniProt Q13464)
T3 construct: purchased ThermoFisher (SelectScreen, Z'-LYTE)
Summary of the method: as §1

[4] = target: T4, MAPK14 (p38 alpha) Direct (Homo sapiens, UniProt Q16539)
T4 construct: purchased ThermoFisher (SelectScreen, Z'-LYTE)
Summary of the method: as §1

[5] = target: T5, PRKACA (PKA) (Homo sapiens, UniProt P17612)
T5 construct: purchased ThermoFisher (SelectScreen, Z'-LYTE)
Summary of the method: as §1

[6] = target: T6, PHKG2 (Homo sapiens, UniProt P15735)
T6 construct: purchased ThermoFisher (SelectScreen, Z'-LYTE)
T6 sequence (P15735 1-406): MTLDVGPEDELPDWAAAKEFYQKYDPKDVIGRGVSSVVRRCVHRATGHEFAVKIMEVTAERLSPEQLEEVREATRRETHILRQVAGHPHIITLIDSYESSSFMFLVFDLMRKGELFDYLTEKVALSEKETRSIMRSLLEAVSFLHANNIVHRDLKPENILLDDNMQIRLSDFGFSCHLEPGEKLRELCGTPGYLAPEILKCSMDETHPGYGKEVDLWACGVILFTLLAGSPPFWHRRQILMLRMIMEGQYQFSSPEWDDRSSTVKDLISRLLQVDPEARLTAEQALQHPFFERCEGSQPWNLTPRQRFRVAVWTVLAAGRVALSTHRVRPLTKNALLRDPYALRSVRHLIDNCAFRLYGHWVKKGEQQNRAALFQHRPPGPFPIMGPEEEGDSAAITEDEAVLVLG
Summary of the method: as §1

[7] = target: T7, MYLK2 (skMLCK) (Homo sapiens, UniProt Q9H1R3)
T7 construct: purchased ThermoFisher (SelectScreen, Z'-LYTE)
Summary of the method: as §1

[8] = target: T8, HIPK3 (YAK1) (Homo sapiens, UniProt Q9H422)
T8 construct: purchased ThermoFisher (SelectScreen, Z'-LYTE)
Summary of the method: as §1

[9] = target: T9, PAK7 (KIAA1264) (Homo sapiens, UniProt Q9P286)
T9 construct: purchased ThermoFisher (SelectScreen, Z'-LYTE)
Summary of the method: as §1

[10] = target: T10, SRPK1 (Homo sapiens, UniProt Q96SB4)
T10 construct: purchased ThermoFisher (SelectScreen, Z'-LYTE)
Summary of the method: as §1

[11] = target: T11, EPHA2 (Homo sapiens, UniProt P29317)
T11 construct: purchased ThermoFisher (SelectScreen, Z'-LYTE)
Summary of the method: as §1

[12] = target: T12, MET (cMet) (Homo sapiens, UniProt P08581)
T12 construct: purchased ThermoFisher (SelectScreen, Z'-LYTE)
Summary of the method: as §1

[13] = target: T13, HCK (Homo sapiens, UniProt P08631)
T13 construct: purchased ThermoFisher (SelectScreen, Z'-LYTE)
Summary of the method: as §1

[14] = target: T14, HIPK4 (Homo sapiens, UniProt Q8NE63)
T14 construct: purchased ThermoFisher (SelectScreen, Z'-LYTE)
T14 sequence (Q8NE63 1-616): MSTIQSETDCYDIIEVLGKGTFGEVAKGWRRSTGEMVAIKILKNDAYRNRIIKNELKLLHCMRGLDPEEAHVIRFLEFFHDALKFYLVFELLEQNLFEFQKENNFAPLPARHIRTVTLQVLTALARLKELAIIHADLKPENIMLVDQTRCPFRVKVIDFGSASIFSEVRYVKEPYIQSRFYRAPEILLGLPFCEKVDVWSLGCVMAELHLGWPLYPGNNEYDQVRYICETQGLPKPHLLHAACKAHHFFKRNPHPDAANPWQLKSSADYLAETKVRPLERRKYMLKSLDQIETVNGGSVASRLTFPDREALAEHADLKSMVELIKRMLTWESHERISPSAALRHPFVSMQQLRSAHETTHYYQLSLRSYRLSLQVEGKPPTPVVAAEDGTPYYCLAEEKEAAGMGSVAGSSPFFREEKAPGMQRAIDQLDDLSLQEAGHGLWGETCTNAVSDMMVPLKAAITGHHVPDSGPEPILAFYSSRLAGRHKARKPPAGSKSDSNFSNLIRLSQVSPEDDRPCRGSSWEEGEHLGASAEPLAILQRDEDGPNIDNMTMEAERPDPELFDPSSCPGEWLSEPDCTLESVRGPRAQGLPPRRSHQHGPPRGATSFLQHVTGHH
Summary of the method: as §1

[15] = target: T15, MERTK (cMER) (Homo sapiens, UniProt Q12866)
T15 construct: purchased ThermoFisher (SelectScreen, Z'-LYTE)
T15 sequence (Q12866 21-999): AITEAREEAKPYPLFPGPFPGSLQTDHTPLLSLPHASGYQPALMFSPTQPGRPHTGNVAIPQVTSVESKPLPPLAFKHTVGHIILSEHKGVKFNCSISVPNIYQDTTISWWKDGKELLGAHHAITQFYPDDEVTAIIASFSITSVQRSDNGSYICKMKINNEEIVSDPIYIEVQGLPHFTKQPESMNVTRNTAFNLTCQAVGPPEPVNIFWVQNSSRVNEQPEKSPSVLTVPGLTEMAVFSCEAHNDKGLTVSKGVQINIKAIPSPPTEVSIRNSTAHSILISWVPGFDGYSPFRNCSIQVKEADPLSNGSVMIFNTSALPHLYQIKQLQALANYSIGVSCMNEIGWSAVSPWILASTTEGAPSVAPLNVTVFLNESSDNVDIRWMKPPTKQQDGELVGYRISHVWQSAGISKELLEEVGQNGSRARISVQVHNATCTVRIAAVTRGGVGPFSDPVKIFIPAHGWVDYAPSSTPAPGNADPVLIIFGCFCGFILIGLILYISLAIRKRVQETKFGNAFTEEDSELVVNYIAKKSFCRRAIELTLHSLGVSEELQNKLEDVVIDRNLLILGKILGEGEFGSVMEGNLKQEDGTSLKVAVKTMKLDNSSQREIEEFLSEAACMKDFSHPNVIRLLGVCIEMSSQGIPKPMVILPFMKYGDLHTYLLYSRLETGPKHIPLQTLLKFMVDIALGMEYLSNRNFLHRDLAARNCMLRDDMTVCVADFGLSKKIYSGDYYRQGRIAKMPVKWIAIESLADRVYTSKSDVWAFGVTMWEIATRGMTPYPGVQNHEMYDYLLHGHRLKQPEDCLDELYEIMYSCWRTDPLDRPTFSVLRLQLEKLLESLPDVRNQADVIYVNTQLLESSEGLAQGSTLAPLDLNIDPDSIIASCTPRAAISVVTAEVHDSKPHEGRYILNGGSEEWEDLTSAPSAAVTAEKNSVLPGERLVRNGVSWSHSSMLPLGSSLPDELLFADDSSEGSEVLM
Summary of the method: as §1

T13 sequence (P08631 whole entry): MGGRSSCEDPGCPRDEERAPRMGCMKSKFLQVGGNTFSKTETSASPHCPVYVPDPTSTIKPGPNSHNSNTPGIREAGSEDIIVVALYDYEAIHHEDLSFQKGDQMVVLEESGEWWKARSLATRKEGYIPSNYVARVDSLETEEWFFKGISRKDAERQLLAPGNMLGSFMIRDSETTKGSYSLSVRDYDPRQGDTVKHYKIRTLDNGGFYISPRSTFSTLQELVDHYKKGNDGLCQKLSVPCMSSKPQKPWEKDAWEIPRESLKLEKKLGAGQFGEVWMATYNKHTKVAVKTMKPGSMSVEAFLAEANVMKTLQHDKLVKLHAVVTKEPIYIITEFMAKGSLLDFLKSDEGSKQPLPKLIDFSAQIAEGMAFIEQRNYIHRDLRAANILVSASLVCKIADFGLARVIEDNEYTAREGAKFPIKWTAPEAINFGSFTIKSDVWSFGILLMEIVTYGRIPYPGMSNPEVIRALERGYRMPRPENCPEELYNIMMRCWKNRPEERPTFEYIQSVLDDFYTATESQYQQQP
T12 sequence (P08581 25-1390): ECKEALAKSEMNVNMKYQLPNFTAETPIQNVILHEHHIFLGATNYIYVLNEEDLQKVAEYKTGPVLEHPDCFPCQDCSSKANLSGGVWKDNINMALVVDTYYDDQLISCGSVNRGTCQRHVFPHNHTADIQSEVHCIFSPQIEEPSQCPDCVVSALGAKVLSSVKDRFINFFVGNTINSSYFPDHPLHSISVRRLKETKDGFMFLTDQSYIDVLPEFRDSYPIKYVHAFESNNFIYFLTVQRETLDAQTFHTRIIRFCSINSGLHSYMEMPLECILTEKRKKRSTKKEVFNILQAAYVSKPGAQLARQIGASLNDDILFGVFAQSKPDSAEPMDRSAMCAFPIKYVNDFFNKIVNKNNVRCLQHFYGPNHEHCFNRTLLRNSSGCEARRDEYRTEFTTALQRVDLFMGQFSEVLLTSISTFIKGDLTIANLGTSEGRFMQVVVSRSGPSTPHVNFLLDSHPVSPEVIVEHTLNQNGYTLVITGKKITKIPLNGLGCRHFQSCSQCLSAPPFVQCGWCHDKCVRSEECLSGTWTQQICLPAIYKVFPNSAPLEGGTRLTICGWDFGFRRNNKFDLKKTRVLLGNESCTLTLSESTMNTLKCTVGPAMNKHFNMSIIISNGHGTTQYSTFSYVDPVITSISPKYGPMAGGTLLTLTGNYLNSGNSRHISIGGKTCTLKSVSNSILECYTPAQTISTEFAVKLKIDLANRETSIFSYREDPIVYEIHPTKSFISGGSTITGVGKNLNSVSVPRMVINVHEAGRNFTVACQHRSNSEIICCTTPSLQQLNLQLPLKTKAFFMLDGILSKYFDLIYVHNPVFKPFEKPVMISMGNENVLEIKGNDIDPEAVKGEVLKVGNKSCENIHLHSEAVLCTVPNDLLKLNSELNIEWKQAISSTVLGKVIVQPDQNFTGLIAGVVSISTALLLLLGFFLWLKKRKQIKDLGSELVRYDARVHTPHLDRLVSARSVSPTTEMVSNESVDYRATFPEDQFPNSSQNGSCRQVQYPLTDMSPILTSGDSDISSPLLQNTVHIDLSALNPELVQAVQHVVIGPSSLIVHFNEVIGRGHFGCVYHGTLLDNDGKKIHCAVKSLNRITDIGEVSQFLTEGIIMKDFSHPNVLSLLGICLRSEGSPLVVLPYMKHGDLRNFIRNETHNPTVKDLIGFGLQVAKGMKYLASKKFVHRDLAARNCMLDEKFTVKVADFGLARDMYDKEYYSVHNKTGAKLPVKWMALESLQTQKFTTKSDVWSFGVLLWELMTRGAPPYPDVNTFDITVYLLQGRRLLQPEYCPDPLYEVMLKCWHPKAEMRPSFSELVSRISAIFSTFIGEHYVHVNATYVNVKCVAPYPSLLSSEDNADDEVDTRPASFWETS
T10 sequence (Q96SB4 whole entry): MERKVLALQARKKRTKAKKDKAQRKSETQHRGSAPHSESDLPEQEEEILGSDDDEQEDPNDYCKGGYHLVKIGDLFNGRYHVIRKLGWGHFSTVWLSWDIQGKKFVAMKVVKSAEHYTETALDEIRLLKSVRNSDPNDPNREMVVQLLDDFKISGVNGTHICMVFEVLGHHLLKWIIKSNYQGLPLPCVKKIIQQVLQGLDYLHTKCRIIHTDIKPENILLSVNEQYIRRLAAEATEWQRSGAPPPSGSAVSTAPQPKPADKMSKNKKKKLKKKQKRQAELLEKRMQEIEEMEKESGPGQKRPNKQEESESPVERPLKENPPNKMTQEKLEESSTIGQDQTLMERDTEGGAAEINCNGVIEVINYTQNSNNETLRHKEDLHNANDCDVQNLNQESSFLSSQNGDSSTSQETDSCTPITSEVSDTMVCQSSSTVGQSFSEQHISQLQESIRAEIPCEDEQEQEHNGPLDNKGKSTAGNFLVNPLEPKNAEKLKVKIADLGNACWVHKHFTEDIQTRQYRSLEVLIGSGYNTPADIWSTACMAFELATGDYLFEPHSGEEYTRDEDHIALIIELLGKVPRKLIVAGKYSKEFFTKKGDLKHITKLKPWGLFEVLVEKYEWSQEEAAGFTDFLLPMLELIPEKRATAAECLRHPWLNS
T2 sequence (P35916 25-1363): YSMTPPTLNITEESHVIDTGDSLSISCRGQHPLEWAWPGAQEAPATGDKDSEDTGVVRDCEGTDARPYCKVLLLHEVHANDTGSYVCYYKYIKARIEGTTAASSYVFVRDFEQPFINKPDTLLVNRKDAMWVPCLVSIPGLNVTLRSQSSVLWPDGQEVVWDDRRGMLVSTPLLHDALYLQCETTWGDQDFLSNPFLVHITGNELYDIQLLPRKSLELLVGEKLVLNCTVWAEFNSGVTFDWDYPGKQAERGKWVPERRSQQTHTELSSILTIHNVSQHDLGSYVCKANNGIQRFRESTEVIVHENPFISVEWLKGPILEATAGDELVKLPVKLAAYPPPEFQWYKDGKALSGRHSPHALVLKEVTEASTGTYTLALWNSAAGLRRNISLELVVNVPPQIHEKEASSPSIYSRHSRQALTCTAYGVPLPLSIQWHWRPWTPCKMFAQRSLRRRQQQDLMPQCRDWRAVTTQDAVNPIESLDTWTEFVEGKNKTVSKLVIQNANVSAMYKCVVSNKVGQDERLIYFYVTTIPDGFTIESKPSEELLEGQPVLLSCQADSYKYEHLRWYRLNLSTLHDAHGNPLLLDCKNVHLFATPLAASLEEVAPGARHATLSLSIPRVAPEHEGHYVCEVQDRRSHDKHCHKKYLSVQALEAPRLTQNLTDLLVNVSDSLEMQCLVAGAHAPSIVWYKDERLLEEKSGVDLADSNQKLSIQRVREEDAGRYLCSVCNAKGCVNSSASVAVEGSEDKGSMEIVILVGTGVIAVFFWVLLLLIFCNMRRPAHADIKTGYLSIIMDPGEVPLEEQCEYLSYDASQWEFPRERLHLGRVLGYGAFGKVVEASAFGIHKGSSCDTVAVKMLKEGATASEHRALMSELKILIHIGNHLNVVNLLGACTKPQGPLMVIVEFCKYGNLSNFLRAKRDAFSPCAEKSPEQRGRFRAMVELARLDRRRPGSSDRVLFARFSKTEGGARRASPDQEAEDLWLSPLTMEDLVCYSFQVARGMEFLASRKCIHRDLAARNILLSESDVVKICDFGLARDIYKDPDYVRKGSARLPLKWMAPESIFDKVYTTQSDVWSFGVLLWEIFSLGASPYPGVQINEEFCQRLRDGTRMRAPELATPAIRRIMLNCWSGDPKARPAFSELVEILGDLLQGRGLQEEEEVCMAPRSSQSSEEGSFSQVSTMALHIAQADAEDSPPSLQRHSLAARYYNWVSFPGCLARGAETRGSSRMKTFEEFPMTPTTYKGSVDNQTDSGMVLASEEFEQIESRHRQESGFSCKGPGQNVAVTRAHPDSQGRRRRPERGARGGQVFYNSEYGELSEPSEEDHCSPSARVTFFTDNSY
T4 sequence (Q16539 whole entry): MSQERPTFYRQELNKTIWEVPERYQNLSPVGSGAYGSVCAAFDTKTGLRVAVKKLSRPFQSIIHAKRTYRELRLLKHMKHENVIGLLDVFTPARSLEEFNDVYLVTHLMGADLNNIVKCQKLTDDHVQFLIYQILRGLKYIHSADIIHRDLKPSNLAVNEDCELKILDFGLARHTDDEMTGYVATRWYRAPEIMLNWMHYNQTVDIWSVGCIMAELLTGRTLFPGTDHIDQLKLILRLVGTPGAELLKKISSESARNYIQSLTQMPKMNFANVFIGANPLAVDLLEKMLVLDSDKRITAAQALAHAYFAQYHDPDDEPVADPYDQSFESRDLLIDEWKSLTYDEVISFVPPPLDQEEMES
T1 sequence (P42685 whole entry): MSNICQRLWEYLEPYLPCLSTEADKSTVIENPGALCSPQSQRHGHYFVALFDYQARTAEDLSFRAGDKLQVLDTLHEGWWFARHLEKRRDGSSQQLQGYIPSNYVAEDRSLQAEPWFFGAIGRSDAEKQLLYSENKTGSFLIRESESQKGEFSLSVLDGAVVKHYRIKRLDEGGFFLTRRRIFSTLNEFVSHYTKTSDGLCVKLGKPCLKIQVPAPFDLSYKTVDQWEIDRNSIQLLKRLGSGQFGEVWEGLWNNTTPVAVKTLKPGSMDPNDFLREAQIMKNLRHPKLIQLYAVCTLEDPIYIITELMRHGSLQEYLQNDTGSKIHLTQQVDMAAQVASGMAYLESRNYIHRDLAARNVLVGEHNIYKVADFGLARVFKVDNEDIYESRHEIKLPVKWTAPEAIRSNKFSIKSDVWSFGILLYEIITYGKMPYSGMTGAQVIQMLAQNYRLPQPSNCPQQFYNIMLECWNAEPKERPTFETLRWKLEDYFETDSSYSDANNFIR

Compound | inhibition at 10 µM [1] [%] | inhibition at 10 µM [2] [%] | inhibition at 10 µM [3] [%] | inhibition at 10 µM [4] [%] | inhibition at 10 µM [5] [%] | inhibition at 10 µM [6] [%] | inhibition at 10 µM [7] [%] | inhibition at 10 µM [8] [%] | inhibition at 10 µM [9] [%] | inhibition at 10 µM [10] [%] | inhibition at 10 µM [11] [%] | inhibition at 10 µM [12] [%] | inhibition at 10 µM [13] [%] | inhibition at 10 µM [14] [%] | inhibition at 10 µM [15] [%] | other results
XMD8-92 [Compound 2, reference compound] |  |  |  |  |  |  |  |  |  |  |  |  |  |  |  | FRK (PTK5) % Inhibition ([1]; 10 µM compound, ATP Km app): 20%; FLT4 (VEGFR3) % Inhibition [2]: 4%; ROCK1 % Inhibition ([3]; 10 µM compound, ATP Km app): 16%; MAPK14 (p38 alpha) Direct % Inhibition ([4]; 10 µM compound, ATP Km app): 8%; PRKACA (PKA) % Inhibition ([5]; 10 µM compound, ATP Km app): 56%; PHKG2 % Inhibition ([6]; 10 µM compound, ATP Km app): 19%; MYLK2 (skMLCK) % Inhibition ([7]; 10 µM compound, ATP Km app): 42%; HIPK3 (YAK1) % Inhibition ([8]; 10 µM compound, ATP Km app): 1.8%; PAK7 (KIAA1264) % Inhibition ([9]; 10 µM compound, ATP Km app): 6%; SRPK1 % Inhibition ([10]; 10 µM compound, ATP Km app): -3%; EPHA2 % Inhibition ([11]; 10 µM compound, ATP Km app): -9.52%; MET (cMet) % Inhibition ([12]; 10 µM compound, ATP Km app): 57%; HCK % Inhibition ([13]; 10 µM compound, ATP Km app): 14%; HIPK4 % Inhibition ([14]; 10 µM compound, ATP Km app): 10%; MERTK (cMER) % Inhibition ([15]; 10 µM compound, ATP Km app): 0.252%
Cc1ncc(-c2nc(Nc3ccc(C(=O)NCCN4CCCCC4)cc3)ncc2F)n1C(C)C [Compound 3] | 68 | 99 | 27 | 9 | 74 | 79 | 78 | 88 | 71 | 24 | 69 | 85 | 48 | 92 | 99 | 
Cc1cc(Nc2nc(N)nn2C(=O)NC(C)C)ccc1Cl [Compound 5] | 21 | > 80 | 37 | 9 | 1.5 | -2.57 | -0.775 | 6.56 | 26 | 2 | -1.47 | 25 | 16 | 19 | 43 | FLT4 (VEGFR3) % Inhibition ([2]; listed as SN1109056190, 10 µM): 86%
